Assays:
Assay type in all cases: cell-based
Hela = test: TumorCell MeanTimeSurvival (Alamar Blue Stain), Hela; conditions: Homo sapiens
PC3 = test: TumorCell MeanTimeSurvival (Alamar Blue Stain), PC3; conditions: Homo sapiens, PC-3
HCT-116 = test: TumorCell MeanTimeSurvival (Alamar Blue Stain), HCT-116; conditions: Homo sapiens
MiaPaca = test: MTS cell proliferation assay, MiaPaca; conditions: Table 1C
Description: MTS assays. Antiproliferative effects of anticancer drugs are tested by the CellTiter 96 AQueous assay (Promega, WI), which is a colorimetric assay for determining the number of viable cells. (See, e.g., Wang, L., et al., Methods Cell Sci (1996) 18:249-255). Generally, cells (2,000 to 5,000 cells/well) are seeded on 96 well flat bottom plates (Corning, NY) in 100 μl of culture medium without any anticancer drug on day 0, and the culture medium is exchanged for that contained anticancer drugs at various concentrations on day 1. After incubation for 3 days under normal growth conditions (on day 4), the monolayers are washed once in PBS, and the medium is switched to 100 μl of PBS in each of the 96 well plate. After mixing MTS and PMS at the ratio of 20:1, 20 μl of MTS/PMS solution is added to each of the 96 well plate and incubated for 4 hours in a humidified atmosphere of 5% CO2 at 37° C. The absorbance is read at 490 nm using FLUOstar Galaxy 96 well plate reader (BMG Labtechnologies, Germany).

[1] = Homo sapiens, MIA PaCa-2, M CELL MiaPaca

**Q.** `CN1CCCC1CCNC(=O)c1c(=O)c2cc(F)c(SCCc3cnccn3)cc2n2c1sc1ccccc12` (stereo not drawn) [drawing 471] was tested. Which IC50 (Hela) did it give?
**A.** Its IC50 is 2800 nM.

**Q.** And the IC50 (PC3)?
**A.** The IC50 was 2700 nM.

**Q.** What about the IC50 (HCT-116) of the same molecule?
**A.** The IC50 was 1100 nM.

**Q.** With `O=C(NCCN1CCCC1)c1c(=O)c2cnc(N3CCCC3)nc2n2c1sc1ccc(Cl)cc12` [drawing 213] as the molecule, how does the IC50 (MiaPaca; M CELL MiaPaca) read?
**A.** The IC50 was 300 nM.

**Q.** With `O=C(NCCN1CCCC1)c1c(=O)c2cc(F)c(SCCc3cnccn3)cc2n2c1sc1ccccc12` [drawing 472] as the molecule, how does the IC50 (Hela) read?
**A.** The IC50 was 2700 nM.

**Q.** And the IC50 (PC3)?
**A.** Its IC50 is 520 nM.

**Q.** What about the IC50 (HCT-116) of the same molecule?
**A.** The IC50 was 570 nM.

**Q.** Which IC50 (MiaPaca; [1]) does the source give for `O=C(NCCN1CCCC1)c1c(=O)c2ccc(N3CCN(c4ncccn4)CC3)nc2n2c1sc1ccc(Cl)cc12` [drawing 286] here?
**A.** The IC50 was 2500 nM.

**Q.** How did the IC50 (MiaPaca; [1]) turn out when `O=C1CN(c2ccnc3c2c(=O)c(C(=O)NCCN2CCOCC2)c2sc4ccccc4n23)CCN1` [drawing 234] was run?
**A.** Its IC50 is 6600 nM.

— patent publication US7816406B2, “Quinolone analogs” (Cylene Pharmaceuticals, Inc., priority 2004, dated 2010)
